Laboratory results reported in patent US10251919B2, “Method for improving skin condition or anti-microorganisms or anti-oxidation using Lactobacillus sakei MD honeysuckle” (AMOREPACIFIC CORPORATION, priority 2015, dated 2019).
“And” between values parts separate entries of the source, which are not always exact repeats. Equal entries are not always repeated.

Tests used:
DPPH assay = type: biochemical; settings: at 100 μM; 1 mL 0.2 mM DPPH, 30 minutes
Procedure: L-Ascorbic acid (Sigma Aldrich) was used as a positive control. […] MRS broth not treated with a strain was used as a negative control. After the reaction, OD515 was measured using a spectrophotometer and DPPH radical scavenging activity was calculated according to the following equation. DPPH radical scavenging activity (%)=[(Absorbance of control to which sample was not added)−(Absorbance of group to which sample was added)]/(Absorbance of control to which sample was not added) […] The experiment was conducted 3 times and the average value was obtained.

B16 melanoma cells = assay: B16 melanoma cell melanin assay (melanogenesis inhibiting ability); type: cell-based; settings: 100 ppm sample, 200 nM a-MSH; for extracellular OD475 / extracellular melanin / extracellular melanin, % of control / melanin/protein: replicates 1-3
Procedure: Skin-whitening effect was evaluated as described below. B16 melanoma cells were seeded onto a 12-well plate at a density of 1.5×10^5 cells per well. DMEM (Dulbeco's modified Eagle's medium) supplemented with 10% fetal bovine serum was used and the cells were cultured for 24 hours (10% CO2, 37° C.). The 12-well plate onto which the B16 melanoma cells were seeded was treated with 200 nM melanocyte-stimulating hormone (MSH) and then the 12-well plate was treated with each sample (25, 50, 100 and 200 ppm). The test groups were: a group treated with sonicated identified strain (LBS sonication), a group treated with heat-killed identified strain (LBS heat), and a group treated with cultural filtrate of the identified strain (culture). […] The cells treated with nothing were used as a negative control group and those treated only with MSH was used as a vehicle group. After the treatment, the cell culture (extracellular melanin) was transferred to a 96-well plate and absorbance was measured at 475 nm. […] The calculated melanin content was normalized to the total protein content for each group and the melanogenesis inhibiting ability was evaluated by comparing with the control groups. The experiment was repeated 3 times.

SMILES | DPPH radical scavenging activity (DPPH assay) | extracellular melanin, % of control (average of 3) (B16 melanoma cells) | extracellular OD475 (B16 melanoma cells) | extracellular melanin (B16 melanoma cells) | extracellular melanin, % of control (B16 melanoma cells) | melanin/protein (B16 melanoma cells)
O=C1O[C@H]([C@@H](O)CO)C(O)=C1O [L-ascorbic acid] | about 7% |  |  |  |  | 
OC[C@H]1O[C@@H](Oc2ccc(O)cc2)[C@H](O)[C@@H](O)[C@@H]1O [arbutin] |  | 111.1 % of control | 0.281 and 0.252 and 0.274 | 138.50 ppm and 124.00 ppm and 135.00 ppm | 116.8 % of control and 106.1 % of control and 110.5 % of control | 214.2 µg/mg and 194.5 µg/mg and 202.6 µg/mg
O=c1cc(CO)occ1O [kojic acid] |  | 67.3 % of control | 0.163 | 68.00 ppm and 70.00 ppm and 79.50 ppm | 65.1 % of control and 65.3 % of control and 71.5 % of control | 119.4 µg/mg and 119.7 µg/mg and 131.2 µg/mg
